Assay results taken from patent US9725554B2, “Dendritic polyurea for solubilizing active substances of low solubility” (BASF SE, priority 2009, dated 2017).

Key:
physchem = details: pH 7, aqueous buffer, thermodynamic from solid
Method: Then 0.2 g of each active ingredient was weighed into the batch to give a supersaturated solution. […] The mixture was then stirred at room temperature for 72 hours, using a magnetic stirrer. After a rest time of one hour, unsolubilized active ingredient was removed by filtration. The resulting clear or opaque solution was then analyzed for its active ingredient content by means of UV spectroscopy or HPLC.

[1] = Method: Then 100 mg of each active ingredient was weighed into the batch to give a supersaturated solution. The mixture was then stirred at room temperature for 24 hours, using a magnetic stirrer. After a rest time of one hour, unsolubilized active ingredient was removed by centrifuging. The resulting clear or opaque solution was then analyzed for its active ingredient content by means of UV spectroscopy.
The solubility was determined as described in procedure 2.

Compound	solubility at 72 h (physchem) [µg/mL]	Solubility of Fipronil in the presence of polymer [1] [µg/mL]
Clc1ccccc1C(c1ccccc1)(c1ccccc1)n1ccnc1 [Clotrimazole]	< 100	–
polyethylene glycol monomethyl ether [PEG monomethyl ether]	–	6
